Source: patent US5679640A, “Immunosuppressant peptides” (priority 1995, dated 1997)
Non-standard residues stand in square brackets, D forms with d. Residues, ends and D or L forms follow the SMILES beside them. *: point of attachment. Acetyl(1-adamantyl) = O=C(CC12CC3CC(CC(C3)C1)C2)*; Cha = N[C@@H](CC1CCCCC1)C(=O)O

Columns and labels:
in vitro = settings: human, serum
HLA-DR1 = target: T1, HLA-DR1 (Homo sapiens, UniProt P01903+P01911, A100R/D57E/F55L/F60I/F76Y/I96L/L162R/M171V/P40L/Q125E/R42F/V115G/Y59C); assay: DR-peptide binding assay, DR1; settings: for MHC Binding Assay DR1: Table 3, binding affinity relative to HA 307-319 = 1
T1 construct: EBV-transformed homozygous cell lines were used as a source of DR molecules; endogenous in cells; host or cells: LG-2 (EBV-transformed human B cell line, DR1 homozygous); lysate purified on a monoclonal antibody LB3.1 column

DR4w4 = target: T2, DR4w4 (Homo sapiens, UniProt P01903+P01911, A100K/A169T/F76Y/I96L/K127E/L162R/M171V/N62H/P40V/Q125Y/R42H/S133A/S149N/S66Y/V115G/V209L/W38E); assay: DR-peptide binding assay, DR4w4; settings: for MHC Binding Assay DR4w4: Table 3, binding affinity relative to HA 307-319 = 1
T2 construct: EBV-transformed homozygous cell lines were used as a source of DR molecules; endogenous in cells; host or cells: Preiss or Beh (EBV-transformed human B cell lines, DR4 Dw4 homozygous); lysate purified on a monoclonal antibody LB3.1 column

DR4w14 = assay: DR-peptide binding assay, DR4w14; design: species or system human; settings: for MHC Binding Assay DR4w14: Table 3, […]
Protocol: DR-peptide binding assay. Purified DR molecules (10-1,000 nM) were incubated with 10 nM ^125 I-radiolabeled peptide for 48 hours in the presence of added protease inhibitors. […] The final concentrations of protease inhibitors were: 1 mM PMSF, 1.3 mM 1,10-phenanthroline, 73 μM pepstatin A, 8 mM EDTA, 6 mM N-ethyl maleimide, and 200 μM Nα-p-tosyl-L-lysine chloromethyl ketone (TLCK). The final detergent concentration in the incubation mixture was 0.05% NP-40. Several of the peptides screened were hydrophobic and required DMSO to maintain solubility and reduce peptide adsorption to surfaces. In these instances peptide stock solutions were prepared in neat DMSO, and the final DMSO concentration in the incubation mixture was adjusted to 5%. […] The DR-peptide complexes were separated from free peptide by gel filtration on a Sephadex G50 (Pharmacia Fine Chemicals, Piscataway, N.J.) column (23×1.3 cm), as previously described. […] The columns were eluted using PBS (0.5% NP-40, 0.1% NAN3) collected in 1 ml fractions, which were then assayed for radioactivity. The fraction of peptide bound to DR (α) relative to the total amount of offered peptide was determined as the ratio of peptide in the void volume to the total peptide recovered. The α was corrected by subtracting the negative control (^125 I-peptide incubated for two days at room temperature in the presence of protease inhibitors and 120 μg/ml of unlabeled peptide, but in the absence of any DR).
To obtain a figure that positively correlated with the binding affinity, the data were expressed as relative binding values.

[1] = Table 6, binding affinity relative to HA 307-319 = 1

SMILES	half-life (in vitro)	MHC Binding Assay DR1 (HLA-DR1)	MHC Binding Assay DR4w4 (DR4w4)	MHC Binding Assay DR4w14 (DR4w14)	half-life at 50 µg/mL (in vitro)	DR1 (HLA-DR1; [1])	DR4w4 (DR4w4; [1])	DR4w14 (DR4w14; Table 6, […])
CC(=O)N[C@H](Cc1ccc(O)cc1)C(=O)N[C@@H](C)C(=O)N[C@@H](C)C(=O)N[C@@H](Cc1ccccc1)C(=O)N[C@@H](C)C(=O)N[C@@H](C)C(=O)N[C@@H](C)C(=O)N[C@@H](CCCCN)C(=O)N[C@H](C(=O)N[C@@H](C)C(=O)N[C@@H](C)C(=O)N[C@@H](C)C(=O)N[C@@H](C)C(=O)N[C@H](C)C(=O)O)[C@@H](C)O (Ac-[dY]AAFAAAKTAAAA[dA]-OH)	6.77 h	± (0.1 to 0.50)	++ (affinity greater than 1.0)	++ (affinity greater than 1.0)				
C[C@H](NC(=O)CC12CC3CC(CC(C3)C1)C2)C(=O)N[C@@H](C)C(=O)N[C@@H](C)C(=O)N[C@@H](CCCCN)C(=O)N[C@H](C(=O)N[C@@H](C)C(=O)N[C@@H](C)C(=O)N[C@@H](C)C(=O)N[C@@H](Cc1ccccc1)C(=O)N[C@H](C)C(=O)O)[C@@H](C)O ({Acetyl(1-adamantyl)}-AAAKTAAAF[dA]-OH; C-terminus assumed)					7.2 h	+ (0.51 to 1.0)	++ (affinity greater than 1.0)	++ (affinity greater than 1.0)
C[C@H](NC(=O)[C@H](N)Cc1ccc(O)cc1)C(=O)N[C@@H](C)C(=O)N[C@@H](Cc1ccccc1)C(=O)N[C@@H](C)C(=O)N[C@@H](C)C(=O)N[C@@H](C)C(=O)N[C@@H](CCCCN)C(=O)N[C@H](C(=O)N[C@@H](C)C(=O)N[C@@H](C)C(=O)N[C@@H](C)C(=O)N[C@@H](Cc1ccccc1)C(=O)N[C@H](C)C(N)=O)[C@@H](C)O (H-[dY]AAFAAAKTAAAF[dA]-NH2)	5 h	++ (affinity greater than 1.0)	++ (affinity greater than 1.0)	++ (affinity greater than 1.0)				
C[C@H](NC(=O)[C@H](N)Cc1ccc(O)cc1)C(=O)N[C@@H](C)C(=O)N[C@@H](Cc1ccccc1)C(=O)N[C@@H](C)C(=O)N[C@@H](C)C(=O)N[C@@H](C)C(=O)N[C@@H](CCCCN)C(=O)N[C@H](C(=O)N[C@@H](C)C(=O)N[C@@H](C)C(=O)N[C@@H](C)C(=O)N[C@@H](C)C(=O)N[C@H](C)C(=O)O)[C@@H](C)O (H-[dY]AAFAAAKTAAAA[dA]-OH)	8.85 h	++ (affinity greater than 1.0)	++ (affinity greater than 1.0)	++ (affinity greater than 1.0)				
CC(C)C[C@H](NC(=O)[C@@H](NC(=O)[C@H](C)NC(=O)[C@H](C)NC(=O)[C@H](C)NC(=O)[C@H](C)NC(=O)[C@H](CC1CCCCC1)NC(=O)[C@H](C)NC(=O)[C@H](C)NC(=O)[C@H](N)Cc1ccc(O)cc1)[C@@H](C)O)C(=O)N[C@@H](CCCCN)C(=O)N[C@@H](C)C(=O)N[C@@H](C)C(=O)N[C@H](C)C(N)=O [yAAXAAAATLKAAa-NH2]		++ (affinity greater than 1.0)	++ (affinity greater than 1.0)	++ (affinity greater than 1.0)				
CC(=O)N[C@H](Cc1ccc(O)cc1)C(=O)N[C@@H](C)C(=O)N[C@@H](C)C(=O)N[C@@H](CC1CCCCC1)C(=O)N[C@@H](C)C(=O)N[C@@H](C)C(=O)N[C@@H](C)C(=O)N[C@@H](CCCCN)C(=O)N[C@H](C(=O)N[C@@H](C)C(=O)N[C@@H](C)C(=O)N[C@@H](C)C(=O)N[C@@H](C)C(=O)N[C@H](C)C(N)=O)[C@@H](C)O [Ac-yAAXAAAKTAAAAa-NH2]		++ (affinity greater than 1.0)	++ (affinity greater than 1.0)	++ (affinity greater than 1.0)				
C[C@H](NC(=O)[C@H](C)NC(=O)[C@H](C)NC(=O)[C@H](Cc1ccccc1)NC(=O)[C@H](C)NC(=O)[C@@H](C)N)C(=O)N[C@@H](C)C(=O)N[C@H](C(=O)N[C@@H](C)C(=O)N[C@@H](CCCCN)C(=O)N[C@@H](C)C(=O)N[C@@H](C)C(=O)N[C@H](C)C(N)=O)[C@@H](C)O (H-[dA]AFAAAATAKAA[dA]-NH2)		++ (affinity greater than 1.0)	++ (affinity greater than 1.0)	++ (affinity greater than 1.0)				
C[C@H](NC(=O)[C@H](C)NC(=O)[C@H](C)NC(=O)[C@@H](NC(=O)[C@H](CCCCN)NC(=O)[C@H](C)NC(=O)[C@H](C)NC(=O)[C@H](C)NC(=O)[C@H](CC1CCCCC1)NC(=O)[C@@H](C)N)[C@@H](C)O)C(=O)N[C@@H](C)C(=O)N[C@H](C)C(N)=O [aXAAAKTAAAAa-NH2] (H-[dA][Cha]AAAKTAAAA[dA]-NH2)		++ (affinity greater than 1.0)	++ (affinity greater than 1.0)	++ (affinity greater than 1.0)				
